Source: article PMC10269775, “Penicillin-Binding Protein Occupancy Dataset for 18 β-Lactams and 4 β-Lactamase Inhibitors in Neisseria gonorrhoeae” (Microbiology Spectrum, 2023)
Converted amounts (≈) assume the structure as drawn. Like-named read-outs stand apart in the source and are kept apart here.

What was measured:
[1] = system: N. gonorrhoeae ATCC 19424; assay: MIC, CLSI broth microdilution; format: cell-based; conditions: Neisseria gonorrhoeae, ATCC19424, strain ATCC 19424
PBP1, PBP2 and PBP3 [2] = molecular target: PBP1, PBP2 and PBP3 (Neisseria gonorrhoeae, UniProt P08149, H541N); format: binding, Neisseria gonorrhoeae ATCC 19424; conditions: read-out: min. IC50 (minimum observed IC50 value); strain ATCC 19424
[3] = system: N. gonorrhoeae ATCC 49226; assay: MIC, CLSI broth microdilution; format: cell-based, Neisseria gonorrhoeae; conditions: for MIC: strain ATCC 49226; for MIC increase for strain ATCC 49226: ATCC 49226 versus ATCC 19424
PBP2 [4] = molecular target: T1, PBP2 (Neisseria gonorrhoeae, UniProt P08149, H541N); assay: PBP-binding assay (Bocillin FL) in isolated membrane preparations; set-up: species or system Neisseria gonorrhoeae ATCC 19424
T1 construct: endogenous in cells; host or cells: N. gonorrhoeae ATCC 19424, isolated membrane preparation

PBP1 [5] = molecular target: T2, PBP1 (Neisseria gonorrhoeae, UniProt O05131, A375T/F666S); assay: as above; set-up: species or system Neisseria gonorrhoeae ATCC 49226
T2 construct: endogenous in cells; host or cells: N. gonorrhoeae ATCC 49226, isolated membrane preparation
Excerpt: (§1) Bacterial membranes were collected by ultracentrifugation.

PBP1 [6] = molecular target: T3, PBP1 (Neisseria gonorrhoeae, UniProt O05131); assay: as above; conditions: strain ATCC 19424
T3 construct: endogenous in cells; host or cells: N. gonorrhoeae ATCC 19424, isolated membrane preparation
Excerpt: as §1

PBP2 [7] = molecular target: T4, PBP2 (Neisseria gonorrhoeae, UniProt P08149, A510V/A516G/A574V/F504L/H541N/I556V/I566V/K555Q/P552V); assay: biochemical; format: binding, Neisseria gonorrhoeae ATCC 49226
T4 construct: endogenous in cells; host or cells: N. gonorrhoeae ATCC 49226, isolated membrane preparation

PBP3 [8] = molecular target: T5, PBP3 (Neisseria gonorrhoeae, UniProt Q5FAB9); conditions: read-out: IC50 PBP3; strain ATCC 19424; membrane preparation, 30 min drug then Bocillin FL
T5 sequence (Q5FAB9 22-469): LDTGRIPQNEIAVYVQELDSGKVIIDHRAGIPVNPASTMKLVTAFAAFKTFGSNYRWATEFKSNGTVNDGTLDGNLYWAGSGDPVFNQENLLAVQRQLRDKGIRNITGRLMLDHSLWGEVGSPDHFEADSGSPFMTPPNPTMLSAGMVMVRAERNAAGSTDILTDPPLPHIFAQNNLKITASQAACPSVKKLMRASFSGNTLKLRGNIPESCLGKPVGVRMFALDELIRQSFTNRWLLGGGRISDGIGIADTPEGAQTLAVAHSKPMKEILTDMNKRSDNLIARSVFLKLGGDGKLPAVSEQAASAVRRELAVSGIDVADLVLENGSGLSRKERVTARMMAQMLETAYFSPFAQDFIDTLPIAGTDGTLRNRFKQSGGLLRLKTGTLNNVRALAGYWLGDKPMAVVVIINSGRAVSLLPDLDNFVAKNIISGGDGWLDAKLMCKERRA

PBP2 [9] = molecular target: PBP2 (Neisseria gonorrhoeae, UniProt P08149); conditions: read-out: IC50 for PBP2; across both strains ATCC 19424 and ATCC 49226
PBP1, PBP2 and PBP3 [10] = molecular target: PBP1, PBP2 and PBP3 (Neisseria gonorrhoeae, UniProt P08149, A510V/A516G/A574V/F504L/H541N/I556V/I566V/K555Q/P552V); format: binding, Neisseria gonorrhoeae ATCC 49226; conditions: read-out: min. IC50 (minimum observed IC50 value); strain ATCC 49226
PBP3 [11] = molecular target: T5, PBP3; conditions: read-out: IC50 PBP3; strain ATCC 49226; membrane preparation, 30 min drug then Bocillin FL
[12] = system: N. gonorrhoeae ATCC 19424 and ATCC 49226; assay: MIC, summary over both strains; format: cell-based, Neisseria gonorrhoeae; conditions: for times more active: compared with imipenem
PBP1, PBP2 and PBP3 [13] = molecular target: T6, PBP1, PBP2 and PBP3 (Neisseria gonorrhoeae, UniProt Q5FAB9); format: binding, Neisseria gonorrhoeae ATCC 49226; conditions: read-out: min. IC50 (minimum observed IC50 value); strain ATCC 49226
T6 sequence (Q5FAB9 22-469): T5 sequence (Q5FAB9 22-469)

[14] = Neisseria gonorrhoeae, ATCC49226, read-out: MIC
[15] = Neisseria gonorrhoeae, ATCC49226, read-out: MIC (Table S1)
[16] = IC50 PBP2, strain ATCC 19424, membrane preparation, 30 min drug then Bocillin FL
[17] = IC50 PBP1 (Table S1), strain ATCC 49226
[18] = membrane preparation, 30 min drug then Bocillin FL, read-out: IC50 PBP1 (converted)
[19] = IC50 PBP1, strain ATCC 49226, membrane preparation, 30 min drug then Bocillin FL
[20] = IC50 PBP2, strain ATCC 49226, membrane preparation, 30 min drug then Bocillin FL
[21] = read-out: IC50 PBP1 (Table S1) (converted)
[22] = strain ATCC 19424, membrane preparation, 30 min drug then Bocillin FL, read-out: IC50 PBP2 (converted)

Compound	MIC ([1]; read-out: MIC) [µg/mL]	MIC ([1]; read-out: MIC (Table S1)) [µg/mL]	IC50 (PBP1, PBP2 and PBP3 [2]) [µM]	MIC [3, 14] [µg/mL]	MIC [3, 15] [µg/mL]	IC50 (PBP2 [4]; [16]) [µM]	IC50 (PBP1 [6]; [18]) [µM]	IC50 (PBP3 [8]) [µM]	IC50 (PBP1, PBP2 and PBP3 [10]) [µM]	IC50 (PBP1 [5]; [19]) [µM]	IC50 (PBP3 [11]) [µM]	IC50 (PBP2 [7]; [20]) [µM]	also measured
CC1(C)S[C@@H]2[C@H](NC(=O)C(C(=O)O)c3ccccc3)C(=O)N2[C@H]1C(=O)O (stereo partly drawn) [CAR, carbenicillin]	0.032 (≈ 0.0846 µM)	0.032 (≈ 0.0846 µM)	0.344	0.5 (≈ 1.32 µM)	0.5 (≈ 1.32 µM)	0.344	> 5.29						IC50 (PBP1 [5]; [17]): > 5.29 µM; IC50 (PBP2 [7]; IC50 PBP2 (Table S1), strain ATCC 49226): > 5.29 µM
CC(C)(O/N=C(\C(=O)N[C@@H]1C(=O)N2C(C(=O)[O-])=C(C[n+]3ccccc3)CS[C@H]12)c1csc(N)n1)C(=O)O [CAZ, ceftazidime]	0.016 (≈ 0.0293 µM)	0.016 (≈ 0.0293 µM)	0.0183	0.032 (≈ 0.0585 µM)	0.032 (≈ 0.0585 µM)	0.0183	> 3.66	> 3.66	0.0183	> 3.66	> 3.66	0.0183	IC50 (PBP2 [9]): 0.0183 µM
C=CC1=C(C(=O)O)N2C(=O)[C@@H](NC(=O)/C(=N\OCC(=O)O)c3csc(N)n3)[C@H]2SC1 [CFM, cefixime]	0.004 (≈ 0.00882 µM)	0.004 (≈ 0.00882 µM)	0.0221	0.016 (≈ 0.0353 µM)	0.016 (≈ 0.0353 µM)	0.0221	2.03	> 4.41	0.0441	> 4.41	> 4.41	0.0441	IC50 (PBP2 [9]): 0.0221 µM; MIC increase for strain ATCC 49226 [3]: 4 fold
CCO/N=C(\C(=O)N[C@@H]1C(=O)N2C(C(=O)[O-])=C(Sc3nc(-c4cc[n+](C)cc4)cs3)CS[C@H]12)c1nsc(N)n1 [CPT, ceftaroline]	0.032 (≈ 0.0529 µM)	0.032 (≈ 0.0529 µM)	0.248	0.5 (≈ 0.827 µM)	0.5 (≈ 0.827 µM)	0.248	> 3.31	3.14	0.347	> 3.31	2.13	0.347	MIC increase for strain ATCC 49226 [3]: 16 fold
CO/N=C(\C(=O)N[C@@H]1C(=O)N2C(C(=O)O)=C(CSc3nc(=O)c(=O)[nH]n3C)CS[C@H]12)c1csc(N)n1 [CRO, ceftriaxone]	0.004 (≈ 0.00721 µM)	0.004 (≈ 0.00721 µM)		0.002 (≈ 0.00361 µM)	0.008 (≈ 0.0144 µM)		3.37			3.43			
CO/N=C(\C(=O)N[C@@H]1C(=O)N2C(C(=O)O)=C(COC(C)=O)CS[C@H]12)c1csc(N)n1 [CTX, cefotaxime]	0.004 (≈ 0.00878 µM)	0.004 (≈ 0.00878 µM)	0.022	0.008 (≈ 0.0176 µM)	0.008 (≈ 0.0176 µM)	0.022	4.06	3.14	0.022	> 4.39	2.24	0.022	IC50 (PBP2 [9]): 0.022 µM
C[C@@H](O)[C@H]1C(=O)N2C(C(=O)O)=C(S[C@@H]3CN[C@H](C(=O)Nc4cccc(C(=O)O)c4)C3)[C@H](C)[C@H]12 [ETP, ertapenem]	0.004 (≈ 0.00841 µM)	0.004 (≈ 0.00841 µM)		0.008 (≈ 0.0168 µM)	0.008 (≈ 0.0168 µM)	0.0841	1.01			1.2		0.021	times more active [12]: 8 times
CO/N=C(\C(=O)N[C@@H]1C(=O)N2C(C(=O)[O-])=C(C[N+]3(C)CCCC3)CS[C@H]12)c1csc(N)n1 [FEP, cefepime]	0.008 (≈ 0.0166 µM)	0.008 (≈ 0.0166 µM)		0.032 (≈ 0.0666 µM)	0.032 (≈ 0.0666 µM)		> 4.16			> 4.16			
CO[C@@]1(NC(=O)Cc2cccs2)C(=O)N2C(C(=O)O)=C(COC(N)=O)CS[C@@H]21 [FOX, cefoxitin]	0.25 (≈ 0.585 µM)	0.25 (≈ 0.585 µM)		0.5 (≈ 1.17 µM)	0.5 (≈ 1.17 µM)	0.912	1.36			2.13		> 4.68	
C[C@@H](O)[C@H]1C(=O)N2C(C(=O)O)=C(SCCN=CN)C[C@H]12 [IPM, imipenem]	0.032 (≈ 0.107 µM)	0.032 (≈ 0.107 µM)		0.064 (≈ 0.214 µM)	0.064 (≈ 0.214 µM)	0.234	1.34			2.67		0.568	MIC ([12]; Neisseria gonorrhoeae, across the two ATCC strains): 0.032 to 0.064 µg/mL (≈ 0.107 to 0.214 µM)
CC1(C)S[C@@H]2[C@H](/N=C/N3CCCCCC3)C(=O)N2[C@H]1C(=O)O [MEC, amdinocillin]	1 (≈ 3.07 µM)	1 (≈ 3.07 µM)	4.09	8 (≈ 24.6 µM)	8 (≈ 24.6 µM)	4.09	313						IC50 (PBP1 [6]; [21]): 314 µM
C[C@@H](O)[C@H]1C(=O)N2C(C(=O)O)=C(S[C@@H]3CN[C@H](C(=O)N(C)C)C3)[C@H](C)[C@H]12 [MEM, meropenem]	0.008 (≈ 0.0209 µM)	0.008 (≈ 0.0209 µM)		0.016 (≈ 0.0417 µM)	0.016 (≈ 0.0417 µM)		0.626			1.17			IC50 (PBP2 [4]; IC50 PBP2 (Table S1), strain ATCC 19424): 0.104 µM; times more active [12]: 8 times
CCN1CCN(C(=O)N[C@@H](C(=O)N[C@@H]2C(=O)N3[C@@H]2SC(C)(C)[C@@H]3C(=O)O)c2ccccc2)C(=O)C1=O [PIP, piperacillin]	0.001 (≈ 0.00193 µM)	0.001 (≈ 0.00193 µM)	0.0386		0.125 (≈ 0.242 µM)		> 3.86		0.0193	> 3.86		0.0193	MIC increase for strain ATCC 49226 [3]: 125 fold; IC50 (PBP2 [4]; [22]): 0.0386 µM
CC1(C)S[C@@H]2[C@H](NC(=O)[C@H](C(=O)O)c3ccsc3)C(=O)N2[C@H]1C(=O)O [TIC, ticarcillin]	0.016 (≈ 0.0416 µM)	0.016 (≈ 0.0416 µM)	0.494	0.5 (≈ 1.3 µM)	0.5 (≈ 1.3 µM)		> 5.2	2.73		> 5.2	1.64	> 5.2	IC50 (PBP1, PBP2 and PBP3 [13]): 1.64 µM; IC50 (PBP2 [4]; [22]): 0.494 µM
Cn1c(N)c(NC(=O)NCCN)c[n+]1CC1=C(C(=O)O)N2C(=O)[C@@H](NC(=O)/C(=N\OC(C)(C)C(=O)[O-])c3nsc(N)n3)[C@H]2SC1 [TOL, ceftolozane]	0.032 (≈ 0.048 µM)	0.032 (≈ 0.048 µM)	0.06	0.25 (≈ 0.375 µM)	0.25 (≈ 0.375 µM)	0.06	> 3	> 3	0.405	> 3	> 3	0.405	MIC [3]: 0.250 µg/mL (≈ 0.375 µM)
C[C@]1(Cn2ccnn2)[C@H](C(=O)O)N2C(=O)C[C@H]2S1(=O)=O [TZ, tazobactam]	0.125 (≈ 0.416 µM)	0.125 (≈ 0.416 µM)	3.56	1 (≈ 3.33 µM)	1 (≈ 3.33 µM)	3.56	63.3	15.7	4.8	83.3	18.9	4.8	IC50 (PBP1 [5]; [17]): 83.6 µM; IC50 (PBP1 [6]; [21]): 64 µM
